# Several values for one entry are separate records, joined by “and”; a condition that tells them apart may be missing. Equal entries are not always repeated.
# Test system: OPM-2 xenografts
# Assay: OPM-2 xenograft efficacy (tumor volume, body weight)
# Type: in vivo, mouse
# Details: for Body Weight (g) Day 21, individual animals / Body Weight Day 21, Mean / Body Weight Day 21, Median / Relative to initial body wt., %: mouse, in vivo, iv
# Procedure: All animal studies were conducted in accordance with the guidelines approved by the Institutional Animal Care and Use Committees of AbbVie. The research protocol was approved by In Vivo Pharmacology at AbbVie prior to study initiation but was not publicly registered or disclosed. Female C.B-17 SCID-beige mice (AMO-1, OPM-2, NCI-H929, and OCI-AML2 xenografts) and female NSG mice (MV4-11-Red.Fluc systemic) were purchased from Charles River Laboratories (Wilmington, MA). Animals were housed in a light cycle-controlled room with HEPA filtration at 22 °C. Animals had nesting and climbing cage topper as the primary environmental enrichment. Animals were inoculated subcutaneously in the right flank with 5 × 10^6 (AMO-1, OPM-2, NCI-H929, and OCI-AML2) or intravenous (IV) with 5 × 10^6 (MV4-11-Red.Fluc). The inoculation volume (0.2 mL) comprised a 50:50 mixture of cells in growth media and Matrigel (BD Biosciences) for subcutaneous injections and 100% phosphate-buffered saline for IV administration. All cell lines used in this publication were authenticated using IDEXX for STR profiling as well as their IMPACT and human IMPACT panels for pathogen screening. Electronic calipers were used to measure the length and width of each tumor 2 to 3 times per week. Tumor volume was estimated by applying the following equation: volume = length × width^2/2. All groups remained blinded during measurements and dosing; only veterinary staff were aware of group identity. When tumors reached approximately 200 mm^3, mice were randomized by match and distributed into treatment and control groups. All xenograft trials were conducted using 5 to 10 mice per group, and all mice were ear tagged and monitored individually throughout the studies. Any animal with a tumor above 2000 mm^3 or 15% loss in body weight was euthanized and removed from the study. Tumor burden in the systemic MV4-11-Red.Fluc experiment was measured using an IVIS® spectrum from PerkinElmer by taking the total photon flux of the entire dorsal side of an individual mouse. Ten minutes prior to imaging, animals received intraperitoneally 0.2 mL of a 15-mg/mL solution of D-Luciferin (PerkinElmer, Catalog #122799) formulated in 100% phosphate-buffered saline. Animals were anesthetized using 3.5% isoflurane and maintained using 2%. Six days after inoculation, animals were imaged and randomized into vehicle and treatment groups at a total flux of ~1 × 10^8. A background control mouse that was tumor naive but received D-Luciferin was placed in the upper left corner of each image. The total flux from this animal was subtracted from the total flux of each animal present in the image.
# For in vivo studies, maximal tumor growth inhibition (TGI) was calculated as the greatest treatment response using the following equation: Maximal TGI = (1 − mean tumor volume of the treated group/mean tumor volume of the vehicle control group) × 100. The tumor growth delay (TGD) percentage was determined as the percentage increase of the median time period for the treatment group to reach an arbitrary tumor volume of 1000 mm^3 relative to the vehicle control group. […] A power analysis was conducted using historical data to determine the number of animals required to yield significance of 0.05 at a 30% difference. There were no animals excluded. Data from experiments in vivo were analyzed using the student’s t-test for TGI values and the Mann–Whitney U test for TGD using Excel and GraphPad Prism. Fisher’s exact test was used to probe significance of differences in response frequency.
# [1] = OPM-2 (DSMZ) xenograft, SCID-beige mouse, 25 mg/kg q7dx3 IV, Day 63
# [2] = OPM-2 (DSMZ) xenograft, SCID-beige mouse, 25 mg/kg q7dx3 IV, Day 70
# [3] = OPM-2 (DSMZ) xenograft, SCID-beige mouse, 25 mg/kg q7dx3 IV, Day 77
# [4] = OPM-2 (DSMZ) xenograft, SCID-beige mouse, 25 mg/kg q7dx3 IV, Day 106
# [5] = OPM-2 (DSMZ) xenograft, SCID-beige mouse, 25 mg/kg q7dx3 IV, Day 113
# [6] = OPM-2 (DSMZ) xenograft, SCID-beige mouse, 25 mg/kg q7dx3 IV, Day 120
# [7] = individual animals, 6.25 mg/kg q7dx3 IV, Day 37, OPM-2 (DSMZ) xenograft, SCID-beige mouse, 6.25 mg/kg
smiles,measurement,setting,value
Cc1c(Cl)c2c(Cl)c(C)c1-c1c(-c3ccc(F)cc3)sc3ncnc(c13)O[C@@H](C(=O)O)Cc1cc(ccc1OCc1ccnc(-c3ccc(OC[C@H]4COCCO4)cc3)n1)OC[C@@H](CN1CCN(C)CC1)O2 [Compound A-1747745],"Body Weight Day 21, % T/C (mean)","OPM-2 (DSMZ) xenograft, SCID-beige mice, 25 mg/kg q7dx3 IV, Day 21, mean(T)/mean(C)",105.36%
same,"Body Weight Day 21, % T/C (median)","OPM-2 (DSMZ) xenograft, SCID-beige mice, 25 mg/kg q7dx3 IV, Day 21, median(T)/median(C)",105.36%
same,Tumor Volume (mm³) Day 63 (individual animals),[1],4 mm³
same,"Tumor Volume Day 63, Mean",[1],4.00 mm³
same,"Tumor Volume Day 63, Median",[1],4.00 mm³
same,Tumor Volume (mm³) Day 70 (individual animals),[2],4 mm³
same,"Tumor Volume Day 70, Mean",[2],4.00 mm³
same,"Tumor Volume Day 70, Median",[2],4.00 mm³
same,Tumor Volume (mm³) Day 77 (individual animals),[3],4 mm³
same,"Tumor Volume Day 77, Mean",[3],4.00 mm³
same,"Tumor Volume Day 77, Median",[3],4.00 mm³
same,Tumor Volume (mm³) Day 106 (individual animals),[4],4 mm³
same,"Tumor Volume Day 106, Mean",[4],4.00 mm³
same,"Tumor Volume Day 106, Median",[4],4.00 mm³
same,Tumor Volume (mm³) Day 113 (individual animals),[5],4 mm³
same,"Tumor Volume Day 113, Mean",[5],4.00 mm³
same,"Tumor Volume Day 113, Median",[5],4.00 mm³
same,Tumor Volume (mm³) Day 120 (individual animals),[6],4 mm³
same,"Tumor Volume Day 120, Mean",[6],4.00 mm³
same,"Tumor Volume Day 120, Median",[6],4.00 mm³
same,"Tumor Volume Day 37, Mean","group mean, 6.25 mg/kg q7dx3 IV, Day 37, OPM-2 (DSMZ) xenograft, SCID-beige mouse",1067.37 mm³
same,"Tumor Volume Day 37, Mean","group mean, 25 mg/kg q7dx3 IV, Day 37, OPM-2 (DSMZ) xenograft, SCID-beige mouse",4.00 mm³
same,"Tumor Volume Day 41, Mean","group mean, 25 mg/kg q7dx3 IV, Day 41, SCID-beige mice",4.00 mm³
same,"Tumor Volume Day 44, Mean","group mean, 25 mg/kg q7dx3 IV, Day 44, SCID-beige mice",4.00 mm³
same,"Tumor Volume (mm³) Day 86, Mean","group mean, 25 mg/kg q7dx3 IV, OPM-2 (DSMZ) xenograft, SCID-beige mice, Day 86",4.00 mm³
same,"Tumor Volume (mm³) Day 93, Mean","group mean, 25 mg/kg q7dx3 IV, OPM-2 (DSMZ) xenograft, SCID-beige mice, Day 93",4.00 mm³
same,"Tumor Volume (mm³) Day 101, Mean","group mean, 25 mg/kg q7dx3 IV, OPM-2 (DSMZ) xenograft, SCID-beige mice, Day 101",4.00 mm³
same,"Tumor Volume (mm³) Day 51, Mean","group mean, 25 mg/kg q7dx3 IV, OPM-2 (DSMZ) xenograft, SCID-beige mouse, Day 51",4.00 mm³
same,"Tumor Volume (mm³) Day 57, Mean","group mean, 25 mg/kg q7dx3 IV, OPM-2 (DSMZ) xenograft, SCID-beige mouse, Day 57",4.00 mm³
same,"Tumor Volume Day 37, Median","group median, 6.25 mg/kg q7dx3 IV, Day 37, OPM-2 (DSMZ) xenograft, SCID-beige mouse",1120.03 mm³
same,"Tumor Volume Day 37, Median","group median, 25 mg/kg q7dx3 IV, Day 37, OPM-2 (DSMZ) xenograft, SCID-beige mouse",4.00 mm³
same,"Tumor Volume Day 41, Median","group median, 25 mg/kg q7dx3 IV, Day 41, SCID-beige mice",4.00 mm³
same,"Tumor Volume Day 44, Median","group median, 25 mg/kg q7dx3 IV, Day 44, SCID-beige mice",4.00 mm³
same,"Tumor Volume (mm³) Day 86, Median","group median, 25 mg/kg q7dx3 IV, OPM-2 (DSMZ) xenograft, SCID-beige mice, Day 86",4.00 mm³
same,"Tumor Volume (mm³) Day 93, Median","group median, 25 mg/kg q7dx3 IV, OPM-2 (DSMZ) xenograft, SCID-beige mice, Day 93",4.00 mm³
same,"Tumor Volume (mm³) Day 101, Median","group median, 25 mg/kg q7dx3 IV, OPM-2 (DSMZ) xenograft, SCID-beige mice, Day 101",4.00 mm³
same,"Tumor Volume (mm³) Day 51, Median","group median, 25 mg/kg q7dx3 IV, OPM-2 (DSMZ) xenograft, SCID-beige mouse, Day 51",4.00 mm³
same,"Tumor Volume (mm³) Day 57, Median","group median, 25 mg/kg q7dx3 IV, OPM-2 (DSMZ) xenograft, SCID-beige mouse, Day 57",4.00 mm³
same,Mortality Observation Day 37,[7],GRPX and EUTV (3×)
same,Tumor Volume (mm³) Day 37,[7],830 mm³ and 1099 mm³ and 1199 mm³ and 1141 mm³
same,Tumor Volume (mm³) Day 37,"individual animals, 25 mg/kg q7dx3 IV, Day 37, OPM-2 (DSMZ) xenograft, SCID-beige mouse",4 mm³
same,Tumor Volume (mm³) Day 41,"individual animals, 25 mg/kg q7dx3 IV, Day 41, SCID-beige mice",4 mm³
same,Tumor Volume (mm³) Day 44,"individual animals, 25 mg/kg q7dx3 IV, Day 44, SCID-beige mice",4 mm³
same,Tumor Volume (mm³) Day 86,"individual animals, 25 mg/kg q7dx3 IV, OPM-2 (DSMZ) xenograft, SCID-beige mice, Day 86",4 mm³
same,Tumor Volume (mm³) Day 93,"individual animals, 25 mg/kg q7dx3 IV, OPM-2 (DSMZ) xenograft, SCID-beige mice, Day 93",4 mm³
same,Tumor Volume (mm³) Day 101,"individual animals, 25 mg/kg q7dx3 IV, OPM-2 (DSMZ) xenograft, SCID-beige mice, Day 101",4 mm³
same,Tumor Volume (mm³) Day 51,"individual animals, 25 mg/kg q7dx3 IV, OPM-2 (DSMZ) xenograft, SCID-beige mouse, Day 51",4 mm³
same,Tumor Volume (mm³) Day 57,"individual animals, 25 mg/kg q7dx3 IV, OPM-2 (DSMZ) xenograft, SCID-beige mouse, Day 57",4 mm³
same,"Body Weight (g) Day 21, individual animals",6.25 mg/kg,21 g
same,"Body Weight Day 21, Mean",6.25 mg/kg,21.00 g
same,"Body Weight Day 21, Median",6.25 mg/kg,21.00 g
same,"Relative to initial body wt., %",6.25 mg/kg,0.00%
same,"Body Weight (g) Day 21, individual animals",25 mg/kg,22 g
same,"Body Weight Day 21, Mean",25 mg/kg,22.13 g
same,"Body Weight Day 21, Median",25 mg/kg,22.13 g
same,"Relative to initial body wt., %",25 mg/kg,0.00%

# Source: publication PMC10600239, “Selective MCL-1 inhibitor ABBV-467 is efficacious in tumor models but is associated with cardiac troponin increases in patients” (Communications Medicine, 2023)
